# “And” between values parts separate entries of the source, which are not always exact repeats. Identical values can stand only once. Counter-ions that a name gives are not always drawn.
# What was measured:
# B16F0 melanoma tumour [1] = test: Tumour uptake by whole body sectioning autoradiography; format: in vivo, mice
# Source text: (ii) A comparison camera quantified in vivo values with values determined using the whole body sectioning conventional autoradiographic method has been done for several compounds. The correlation coefficient obtained between the two methods was 0.92.
# (§1) (iii) For the compound N-(2-diethylaminoethyl)-6-iodoquinoxaline-2-carboxamide, which is described in PCT application n°PCT/IB2007/052992 as compound n°45 in table I of said patent application (hereinafter called “ICF01012”), the tumour uptake has been quantified by 3 methods: camera imaging, autoradiography and counting of tumour tissue after dissection (gamma counter), values are summarized below.
# B16F0 melanoma tumour [2] = test: Tumour uptake by counting of tumour tissue after dissection (gamma counter); format: in vivo, mice
# Source text: as §1
# B16 F0 murine melanoma = test: Biodistribution study by planar scintigraphic imaging (gamma camera), tumour uptake quantification; format: in vivo, C57BL6 male mice; conditions: i.v.
# Description: (§2) Tumour Implantation. For transplantation, cells grown in monolayer culture to confluence were trypsinized and washed with phosphate buffer saline (PBS). They were resuspended in PBS and each mouse received 0.1 mL subcutaneously (3×10^5 cells) on the left flank in order to allow a tumour growth on the body side. Ten days later, the tumours became palpable with a percentage of tumour take of 98-100%.
# The in vivo biodistribution and kinetic profile of each radiolabelled (iodine-125) compound have been studied in C57BL6 male mice bearing the B16 F0 murine melanoma by repeated planar scintigraphic imaging which allows the tumour uptake follow-up in the same animal.
# Gamma Camera. In vivo radionuclide imaging was performed using a γ IMAGER (Biospace Mesures, Paris, France) especially dedicated for small animal, a scintigraphic camera with a continuous 4 mm thick×120 mm diameter CsI(Na) crystal, a position-sensitive Hamamatsu R3292 photomultiplier and a 10 cm field of view.
# Imaging Protocol. On day 14 after tumour implantation (tumour weight 0.25±0.10 g) each [^125I]-radioiodinated compound was administered intravenously via a tail vein (0.1 μmol, range 3.7 to 7 MBq/animal) in three mice for each compound. At different times after administration (1, 3, 6, 24, 72 hours, 5, 7, 10 and 15 days), mice were anesthetized with 0.2 mL, for a 20 g mouse, of a ketamine-xylazine mixture in saline (1-0.25 mL for 5 mL) by i. p. administration, and repeated planar scintigraphic whole body imaging (mouse laying in anterior position on the camera field) were performed by an acquisition time of 10 min. For this study, the camera was equipped with a 1.8/0.2/20 collimator (hole diameter/septum thickness/height in mm).
# Tumoural Radioactivity Quantification Approach. The injected activity to each mouse was determined from scintigraphic imaging of the syringe before and after the injection using the γ-IMAGER.
# Regions of interest (ROIs) were delineated over the whole body image: whole body uptake area (or the various fixing areas, eyes, thyroid and abdomen) and one for the tumour uptake area. In the various ROIs, the activity (cpm) was quantified using the Biospace measures γ VISION+software. These values were normalized to the injected dose. For the tumour, the activity was also normalized to the tumour weight. Firstly, the volume was calculated from the two dimensions caliper measurement (Bissery, M. C.; Guenard, D.; Gueritte-Voegelin, F.; Lavelle, F. Experimental antitumour activity of taxotere (RP 56976, NSC 628503) a taxol analogue. Cancer res. 1991, 51, 4845-4852). Secondly, the weight was determined from the volume value corrected by a factor determined from a large panel of experiments (Weight g=volume mm^3×0.6). The data were expressed as % ID/g of B 16F0 melanoma tumour.
# [3] = tested on: B16F10 and B16F0 murine melanoma tumour grafts; test: Ex vivo biodistribution by organ counting after PET imaging; format: in vivo; conditions: two-and-a-half and four-and-a-half hours after i.v. injection, FIG. 4
# Description: Imaging Protocol. Three sets of mice were prepared for PET imaging as described in FIG. 3 in annex: • (Set 1) Four C57BL6 mice bearing both B16F10 and B16F0 murine melanoma tumour grafts on the flanks were anaesthetized with isoflurane and injected with [^18F]10 (200 μCi). Two were imaged immediately during the first hour after injection, allowed to recover from anaesthesia, anaesthetized again at two hours post injection and imaged between two and two-and-a-half hour after injection, allowed to recover from anaesthesia, anaesthetized again at four hours post injection and imaged between four and four-and-a-half hour after injection, then sacrificed and their organs weighed and counted. […]
# Biodistribution. [^18F]10 biodistribution was analysed for the mice of set 1 (n=4) four-and-a-half hours after injection, and for the mice of set 2 (n=2) two-and-a-half hours after injection. Animals were sacrificed by lethal injection of pentobarbital and organs were collected, weighed and radioactivity of each sample was measured on a Cobra gamma counter (Packard). […]
# [4] = tested on: B16F10 and B16F0 murine melanoma tumour grafts; test: PET imaging of melanoma-bearing mice; format: in vivo, C57BL6 mice
# Description: Imaging Protocol. Three sets of mice were prepared for PET imaging as described in FIG. 3 in annex: • (Set 1) Four C57BL6 mice bearing both B16F10 and B16F0 murine melanoma tumour grafts on the flanks were anaesthetized with isoflurane and injected with [^18F]10 (200 μCi). Two were imaged immediately during the first hour after injection, allowed to recover from anaesthesia, anaesthetized again at two hours post injection and imaged between two and two-and-a-half hour after injection, allowed to recover from anaesthesia, anaesthetized again at four hours post injection and imaged between four and four-and-a-half hour after injection, then sacrificed and their organs weighed and counted. Two other mice were allowed to recover from anaesthesia, anaesthetized at two hours post injection and imaged between two and two-and-a-half hour after injection, allowed to recover from anaesthesia, anaesthetized again at four hours post injection and imaged between four and four-and-a-half hour after injection, then sacrificed and their organs weighed and counted. • (Set 2) Two C57BL6 mice bearing both B16F10 and B16F0 murine melanoma tumour grafts on the shoulders (so as to avoid contaminating signals originating from with digestive and urinary tracts) were injected with [^18F]10 (200 μCi), imaged under isoflurane anesthesia continuously during two hours, then sacrificed and their organs weighed and counted. • (Set 3) One C57BL6 mouse bearing both B16F10 and B16F0 murine melanoma tumour grafts on the shoulders (so as to avoid contaminating signals originating from with digestive and urinary tracts) was injected with [^18F]10 (600 μCi), allowed to recover, anaesthetized with isoflurane six hours post injection, imaged during 30 minutes between six and six-and-a-half hours post injection.
# PET Imaging. […] All values of radioactivity concentrations were normalized for radioactivity decay, as well as by the injected dose of radiotracer, and expressed as percentage of the injected dose per volume of tissue (% ID/cc). […]
# [5] = tested on: subcutaneous B16F0 melanoma; test: Radionuclide therapy experiment (anti-tumoural efficacy); format: in vivo, C57BL/6J mice
# Description: Animals. All experiments were carried out in accordance with the institution recommendations based on the guide for the care and use of laboratory animals. For therapy experiment, we used 6- to 8-week-old C57BL/6J male mice (Charles River Laboratories).
# as §2
# [^131I]11 treatment was administered intravenously at days 6 and 10 after tumour implantation (2×18.5 MBq) in groups of 10 mice. In the same conditions untreated-animals were studied. From three days before the treatment and along the experiment, lugol's iodine solution was added in the two mice groups alimentation to block iodine thyroid uptake. To monitor tumoral growth, tumor volume in mm^3 was calculated twice a week from the measurement of two perpendicular diameters using a caliper according to the formula L×S^2/2 where L and S are the largest and smallest diameters in mm respectively. At day 19 of the experiment, mice were sacrificed. Tumours were removed, dissected and weighted.
# Statistical Analyses. In experiment data are given as mean+SEM and were analyzed by the Student or ANOVA tests.
# Anti-tumoural Efficacy of Targeted Radionuclide Therapy. To assess the therapeutic efficacy of compound [^131I]11 in C57BL/6J mice bearing subcutaneous B16F0 melanoma cells, we injected twice 18.5 MBq [^131I]11 into group of 10 mice. […] The body weight of mice in all groups was stable (data not shown). The weight of tumours at 19 days were 2.29±1.03 g and 0.72±0.28 g respectively for controls and treated.
compound,measurement,setting,value
"CCN(CC)CCNC(=O)c1cnc2cc([125I])ccc2n1 [[^125I]ICF01012, reference compound]",Radioactive concentration in tumour,B16F0 melanoma tumour [1]; 1 H,17 ± 11.1 % ID/g
same,Radioactive concentration in tumour,B16F0 melanoma tumour [1]; 3 H,27.7 ± 7.0 % ID/g
same,Radioactive concentration in tumour,B16F0 melanoma tumour [1]; 6 H,36.4 ± 7.6 % ID/g
same,Radioactive concentration in tumour,B16F0 melanoma tumour [1]; 24 H,21.7 ± 10.8 % ID/g
same,Radioactive concentration in tumour,B16F0 melanoma tumour [1]; 72 H,12.5 ± 1.6 % ID/g
same,Radioactive concentration in tumour,B16F0 melanoma tumour [2]; 1 H,14.9 ± 5.7 % ID/g
same,Radioactive concentration in tumour,B16F0 melanoma tumour [2]; 3 H,28.1 ± 8.9 % ID/g
same,Radioactive concentration in tumour,B16F0 melanoma tumour [2]; 6 H,29.9 ± 2.8 % ID/g
same,Radioactive concentration in tumour,B16F0 melanoma tumour [2]; 24 H,29.7 ± 3.1 % ID/g
same,Radioactive concentration in tumour,B16F0 melanoma tumour [2]; 72 H,11.4 ± 2.6 % ID/g
same,Radioactive concentration in tumour (tumoural uptake),B16 F0 murine melanoma; 1 H post injection,21.8 ± 6.6 % ID/g
same,Radioactive concentration in tumour (tumoural uptake),B16 F0 murine melanoma; 3 H post injection,26.2 ± 6.6 % ID/g and 26.3 ± 6.6 % ID/g
same,Radioactive concentration in tumour (tumoural uptake),B16 F0 murine melanoma; 6 H post injection,29.6 ± 8.4 % ID/g
same,Radioactive concentration in tumour (tumoural uptake),B16 F0 murine melanoma; 24 H post injection,28.0 ± 8.1 % ID/g and 28.0 ± 8.2 % ID/g
same,Radioactive concentration in tumour (tumoural uptake),B16 F0 murine melanoma; 72 H post injection,12.3 ± 3.7 % ID/g
same,Radioactive concentration in tumour (tumoural uptake),B16 F0 murine melanoma; 120 H post injection,7.3 ± 3.6 % ID/g
same,Radioactive concentration in tumour (tumoural uptake),B16 F0 murine melanoma; 168 H post injection,3.4 ± 0.3 % ID/g
same,Radioactive concentration in tumour (tumoural uptake),B16 F0 murine melanoma; 240 H post injection,1.9 ± 0.4 % ID/g
"CCN(CCNC(=O)c1cnc2cc(I)ccc2n1)CCOc1cccnc1[18F] [[^18F]10, [^18F]N-[2-[N-ethyl-N-[2-(2-fluoropyridin-3-yloxy)ethyl]amino]ethyl]-6-iodoquinoxaline-2-carboxamide]","Biodistribution in selected organs (% ID/CC), tumour targeting",[3],specifically target melanoma tumours in vivo
same,Uptake (% injected dose per volume tumour graft) in B16F0 relative to B16F10 tumour grafts,"[4]; 2 and 4 hours post injection, same animal, FIGS. 5 and 6",more than two-to-three times higher
same,Uptake in B16F0 with respect to B16F10,"[4]; dynamic PET, FIG. 7, Set 2",two-to-three times higher
same,Contrast between melanoma grafts and surrounding tissue on PET images,[4]; two to two-and-a-half hours and six to six-and-a-half hours post injection,evident contrast
"CCN(CCNC(=O)c1cnc2cc([131I])ccc2n1)CCOc1cccnc1F [[^131I]11, [^131I]N-[2-[N-ethyl-N-[2-(2-fluoropyridin-3-yloxy)ethyl]amino]ethyl]-6-iodoquinoxaline-2-carboxamide dihydrochloride salt]",Weight of tumours at 19 days,"[5]; 2×18.5 MBq i.v. at days 6 and 10, controls 2.29±1.03 g, p=0.01",0.72 ± 0.28 g
same,Tumour doubling time,"[5]; 2×18.5 MBq i.v. at days 6 and 10 after tumour implantation, untreated 2.82±0.30 days",3.83 ± 0.34 days
same,Body weight of mice,"[5]; all groups, data not shown",stable
same,Ratio T/C of tumour weight at 19 days,[5]; treated vs controls,0.31
same,Effect on B16F0 tumoural growth,"[5]; tumour volume, p<0.001 vs untreated",significantly slowed the B16F0 tumoural growth

# Source: US9125937B2, “Labelled analogues of halobenzamides as multimodal radiopharmaceuticals and their precursors” (INSTITUT NATIONAL DE LA SANTE ET DE LA RECHERCHE MEDICALE …, priority 2008, dated 2015)
